Read-outs that look alike come from different tables or passages of the source. No end group written: not given here.
Tests used:
HLA-A*2902 = HLA-A*2902 (Homo sapiens, UniProt P04439, A270S/D101N/D185E/E176V/E277Q/E87Q/F33T/G231S/H175R/I121M/I218V/I322F/K168Q/L300P/L318F/M331R/P208A/P217A/Q86L/T323A/T345S/V100A/V358M); assay: MHC molecular binding / Capture assay, IC50: A*2902
HLA-A*3002 = HLA-A*3002 (Homo sapiens, UniProt P04439, D101N/D140H/D185E/E176R/F33S/G80R/H175R/K168Q/Q94H/R138E/R41S/V100E); assay: biochemical; assay type: binding
HLA-A*0202 = HLA-A*0202 (Homo sapiens, UniProt P04439, D140Y/D185E/D98H/E176V/E277Q/G131W/G231S/I119L/I121R/I166T/I218V/L180W/L300P/L318F/N151K/N90K/P208A/P217A/Q67R/Q86G/Q94H/R138H/R169H/T345S); assay: biochemical; assay type: binding
HLA-A*0206 = HLA-A*0206 (Homo sapiens, UniProt P04439, D140Y/D185E/D98H/E176V/E277Q/F33Y/G131W/G231S/I119V/I121R/I166T/I218V/L300P/L318F/N151K/N90K/P208A/P217A/Q86G/Q94H/R138H/R169H/T345S); assay: biochemical; assay type: binding
HLA-A*6802 = HLA-A*6802 (Homo sapiens, UniProt P04439, A269V/D140Y/D185E/E176V/E277Q/E87N/F33Y/G231S/I121R/I166T/I218V/L180W/L300P/L318F/N151K/P208A/P217A/Q86R/R138H/R169H/S129P/T345S/V36M); assay: biochemical; assay type: binding
HLA-A*0203 = HLA-A*0203 (Homo sapiens, UniProt P04439, A173T/D140Y/D185E/D98H/E277Q/G131W/G231S/I119V/I121R/I166T/I218V/L180W/L300P/L318F/N151K/N90K/P208A/P217A/Q86G/Q94H/R138H/R169H/T345S); assay: biochemical; assay type: binding
[1] = Binding affinity to A*2902 (expressed as an IC50)
[2] = Binding affinity to A*3002 (expressed as an IC50)
[3] = A*0202 binding affinity (expressed as an IC50)
[4] = A*0206 binding affinity (expressed as an IC50)
[5] = A*6802 binding affinity (expressed as an IC50)
[6] = A*0203 binding affinity (expressed as an IC50)

In the case of `CC(C)C[C@H](NC(=O)[C@H](C)NC(=O)[C@H](CO)NC(=O)[C@H](C)NC(=O)[C@@H](NC(=O)[C@H](CC(=O)O)NC(=O)[C@H](CC(C)C)NC(=O)[C@H](CC(C)C)NC(=O)[C@@H](N)CC(=O)O)[C@@H](C)O)C(=O)N[C@@H](Cc1ccc(O)cc1)C(=O)O`, the IC50 (HLA-A*2902; [1]) is reported as 74 nM.
Work on `CC[C@H](C)[C@H](NC(=O)[C@H](CCC(=O)O)NC(=O)[C@H](CC(C)C)NC(=O)[C@H](C)NC(=O)[C@H](CO)NC(=O)[C@H](CO)NC(=O)[C@H](CC(C)C)NC(=O)[C@@H](N)CCC(=O)O)C(=O)N1CCC[C@H]1C(=O)N[C@@H](Cc1ccc(O)cc1)C(=O)O` yielded an IC50 (HLA-A*2902; [1]) of 6030 nM and an IC50 (HLA-A*3002; [2]) of 4470 nM.
Work on `CC[C@H](C)[C@H](NC(=O)[C@H](Cc1ccc(O)cc1)NC(=O)[C@H](Cc1ccccc1)NC(=O)[C@H](CCCNC(=N)N)NC(=O)[C@H](CC(N)=O)NC(=O)[C@H](CCSC)NC(=O)[C@@H](N)Cc1ccccc1)C(=O)N[C@H](C(=O)N[C@H](C(=O)O)[C@@H](C)O)[C@@H](C)O` yielded an IC50 (HLA-A*0202; [3]) of 18 nM, an IC50 (HLA-A*0206; [4]) of 996 nM and an IC50 (HLA-A*6802; [5]) of 6540 nM.
`CC(C)C[C@H](NC(=O)[C@H](Cc1c[nH]cn1)NC(=O)[C@H](CC(C)C)NC(=O)[C@H](CCCCN)NC(=O)[C@H](CCCNC(=N)N)NC(=O)CNC(=O)[C@H](Cc1ccc(O)cc1)NC(=O)[C@@H](NC(=O)[C@@H](N)CCCCN)[C@@H](C)O)C(=O)N[C@@H](Cc1ccc(O)cc1)C(=O)O` showed an IC50 (HLA-A*2902; [1]) of 27 nM and an IC50 (HLA-A*3002; [2]) of 1.5 nM.
Work on `CC(C)C[C@H](NC(=O)[C@H](CO)NC(=O)[C@@H](N)CC(C)C)C(=O)N[C@@H](CC(=O)O)C(=O)N[C@H](C(=O)N[C@@H](CO)C(=O)N[C@@H](C)C(=O)N[C@@H](C)C(=O)N[C@@H](Cc1ccccc1)C(=O)N[C@@H](Cc1ccc(O)cc1)C(=O)O)C(C)C` yielded an IC50 (HLA-A*2902; [1]) of 12 nM.
Work on `CC[C@H](C)[C@H](NC(=O)[C@@H](N)C(C)C)C(=O)N[C@@H](CS)C(=O)N[C@@H](CO)C(=O)N[C@@H](Cc1ccccc1)C(=O)N[C@@H](CC(C)C)C(=O)N[C@H](C(=O)N[C@@H](Cc1ccccc1)C(=O)N[C@@H](CC(C)C)C(=O)N[C@H](C(=O)O)C(C)C)C(C)C` yielded an IC50 (HLA-A*0202; [3]) of 415 nM, an IC50 (HLA-A*0203; [6]) of 2920 nM and an IC50 (HLA-A*0206; [4]) of 197 nM. The IC50 (HLA-A*6802; [5]) was 1950 nM.
For AMAKAAAAV, the IC50 (HLA-A*0203; [6]) was 6.7 nM, the IC50 (HLA-A*0206; [4]) was 1480 nM and the IC50 (HLA-A*6802; [5]) was 177 nM.
For AYGPGPGKI, the IC50 (HLA-A*2902; A*2902 binding affinity (IC50)) was over 156000 nM and the IC50 (HLA-A*3002; A*3002 binding affinity (IC50)) was 5430 nM.
In the case of CYSLYGTTF, the IC50 (HLA-A*3002) is reported as 7820 nM.
ELEASISGKY showed an IC50 (HLA-A*2902; [1]) of 21900 nM.
FGVRPQVPL gave an IC50 (HLA-A*6802) of 321 nM.
Work on FLKEKGGV yielded an IC50 (HLA-A*0202) of 653 nM, an IC50 (HLA-A*0206) of over 14300 nM and an IC50 (HLA-A*6802) of over 19500 nM.
Compound FPFKYAAAV has an IC50 (HLA-A*6802; [5]) of 92 nM.
With FVSSIFISFY the IC50 (HLA-A*2902; [1]) was 22 nM and the IC50 (HLA-A*3002; [2]) was 84 nM.
Work on IISAVVAIL yielded an IC50 (HLA-A*0202; [3]) of 8 nM, an IC50 (HLA-A*0203; [6]) of 45 nM and an IC50 (HLA-A*0206; [4]) of 1440 nM. It also gave an IC50 (HLA-A*6802; [5]) of 148 nM.
Compound ITEYRHYNY has an IC50 (HLA-A*3002) of 418 nM.
For ITYSAHDTTV, the IC50 (HLA-A*6802; [5]) was 82 nM.
Work on KIFASVAIL yielded an IC50 (HLA-A*0202; [3]) of 16 nM, an IC50 (HLA-A*0203; [6]) of 21 nM and an IC50 (HLA-A*6802; [5]) of 363 nM.
In the case of KLTPRCVTL, the IC50 (HLA-A*0202) is reported as 150 nM, the IC50 (HLA-A*0203) is reported as 20 nM and the IC50 (HLA-A*0206) is reported as 1550 nM. The IC50 (HLA-A*6802) was over 63500 nM.
KMTFLCVQM was tested, and the IC50 (HLA-A*0202; [3]) was 22 nM, the IC50 (HLA-A*0203; [6]) was 525 nM and the IC50 (HLA-A*0206; [4]) was 100 nM. The IC50 (HLA-A*6802; [5]) was 8740 nM.

From patent US20060079453A1, “Hla binding peptides and their uses” (priority 2002, published 2006)
